Measured values published in patent US5948792A, “Fluorine-containing 1,4-disubstituted piperidine derivatives” (Banyu Pharmaceutical Co., Ltd., priority 1996, dated 1999).
pKi: −log10 of the molar value.

What was measured:
M2 receptor = molecular target: T1, M2 receptor (Rattus norvegicus, UniProt P10980); test: Antagonism to M2 receptor in an isolated rat right atrium (in vitro); type: cell-based; conditions: carbachol-induced decrease in heart rate
T1 construct: the right atrium was isolated; from tissue; host or cells: isolated right atrium of male SD strain rat
T1 sequence (P10980 1-466): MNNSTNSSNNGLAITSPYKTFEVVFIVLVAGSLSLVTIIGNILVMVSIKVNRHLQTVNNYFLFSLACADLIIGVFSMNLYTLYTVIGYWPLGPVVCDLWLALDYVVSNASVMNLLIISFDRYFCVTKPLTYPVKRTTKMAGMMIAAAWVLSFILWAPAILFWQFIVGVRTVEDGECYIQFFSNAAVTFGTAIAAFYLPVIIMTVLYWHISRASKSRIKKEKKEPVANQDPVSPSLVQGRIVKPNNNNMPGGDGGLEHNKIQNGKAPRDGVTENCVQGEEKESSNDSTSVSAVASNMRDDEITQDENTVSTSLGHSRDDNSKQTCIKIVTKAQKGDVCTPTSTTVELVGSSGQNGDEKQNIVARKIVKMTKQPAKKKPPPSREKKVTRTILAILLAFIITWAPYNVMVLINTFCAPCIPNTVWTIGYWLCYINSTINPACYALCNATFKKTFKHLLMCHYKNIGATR
Method: Tests for Antagonism to Muscarinic Receptors (in vitro)
1) Tests for Antagonism to M2 receptor in an Isolated Rat Right Atrium
These tests were performed according to a conventional method. A male SD strain rat (weighing 300-500 g) was killed by exsanguination, and the right atrium was isolated. This preparation was isometrically suspended in organ bath filled with 20 ml of Krebs-Henseleit solution (gassed with 95% O2 -5% CO2 and kept at 32° C.) with an initial tension of 0.5 g. The heart rate was recorded with a heart rate counter. After the preparation was equilibrated for 30 minutes, carbachol (10^-9 to 10^-6 M) was cumulatively administered in three-fold increasing doses. Thus, a decrease in heart rate was measured to obtain a dose-response curve for the control experiment. After the preparation was washed with fresh solution to restore the heart rate, a test compound was administered thereto. Ten minutes later, carbachol was cumulatively administered again. Responses to carbachol were expressed as percentages based on the heart rate before administration of carbachol as 100%. The antagonistic potency (KB value) of the test compound was determined from the degree of shift of the dose-response curve obtained by treatment with individual test compound of the present invention.

Muscarinic M3 Receptor [1] = molecular target: T2, Muscarinic M3 Receptor (Rattus norvegicus, UniProt P08483); test: Bronchodilation in rats (p.o.), inhibition of acetylcholine-induced increase in airway resistance; type: in vivo; conditions: po, 1 h, acetylcholine 50 μg/kg i.v. 60 minutes after test compound, read-out: Inhibition of Airway Contraction ED50 po
T2 construct: male rats of the Sprague-Dawley strain; from tissue; host or cells: airways of living male Sprague-Dawley rats (in vivo)
T2 sequence (P08483 whole entry): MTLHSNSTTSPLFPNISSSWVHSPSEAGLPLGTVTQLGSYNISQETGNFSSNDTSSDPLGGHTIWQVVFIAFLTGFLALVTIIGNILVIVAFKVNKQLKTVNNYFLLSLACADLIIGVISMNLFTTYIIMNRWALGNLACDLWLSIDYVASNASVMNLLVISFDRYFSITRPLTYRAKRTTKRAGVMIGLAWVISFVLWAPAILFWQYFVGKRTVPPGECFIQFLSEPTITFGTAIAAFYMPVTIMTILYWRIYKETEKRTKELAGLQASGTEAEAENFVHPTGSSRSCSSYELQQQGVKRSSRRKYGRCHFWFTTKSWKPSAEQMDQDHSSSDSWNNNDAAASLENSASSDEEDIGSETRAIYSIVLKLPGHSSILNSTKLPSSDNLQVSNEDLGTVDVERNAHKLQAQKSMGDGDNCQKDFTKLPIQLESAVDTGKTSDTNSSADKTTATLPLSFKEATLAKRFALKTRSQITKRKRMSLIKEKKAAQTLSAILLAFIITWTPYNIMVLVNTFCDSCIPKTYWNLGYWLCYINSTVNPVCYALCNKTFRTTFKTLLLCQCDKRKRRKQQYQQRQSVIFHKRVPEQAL
Method: Tests for Antagonism Against Muscarinic M3 Receptor (in vivo)
1-B) Tests for Bronchodilation in Rats (p.o.)
Eight- to eleven-weeks-old male rats of Sprague-Dawley strain weighing 380-420 g were orally administered with a test compound. The rats were treated in the identical manner as in the i.v. test, starting 30 minutes after the administration, and their airway resistance values were measured. The acetylcholine-(50 μg/kg, i.v.) induced airway resistance increase were measured 60 minutes after the administration of test compounds. In controls, isotonic sodium chloride solution was used in place of the test compounds and otherwise identical procedures were repeated, the ratio between the two airway resistance values whereby being set to be 100%.

Muscarinic M3 receptor [2] = molecular target: T3, Muscarinic M3 receptor (Homo sapiens, UniProt P20309); test: Inhibition of binding of [3H]-N-methylscopolamine to muscarinic M3 receptor
T3 construct: purchased Receptor Biology, Inc; host or cells: CHO cells (membranes)
T3 sequence (P20309 whole entry): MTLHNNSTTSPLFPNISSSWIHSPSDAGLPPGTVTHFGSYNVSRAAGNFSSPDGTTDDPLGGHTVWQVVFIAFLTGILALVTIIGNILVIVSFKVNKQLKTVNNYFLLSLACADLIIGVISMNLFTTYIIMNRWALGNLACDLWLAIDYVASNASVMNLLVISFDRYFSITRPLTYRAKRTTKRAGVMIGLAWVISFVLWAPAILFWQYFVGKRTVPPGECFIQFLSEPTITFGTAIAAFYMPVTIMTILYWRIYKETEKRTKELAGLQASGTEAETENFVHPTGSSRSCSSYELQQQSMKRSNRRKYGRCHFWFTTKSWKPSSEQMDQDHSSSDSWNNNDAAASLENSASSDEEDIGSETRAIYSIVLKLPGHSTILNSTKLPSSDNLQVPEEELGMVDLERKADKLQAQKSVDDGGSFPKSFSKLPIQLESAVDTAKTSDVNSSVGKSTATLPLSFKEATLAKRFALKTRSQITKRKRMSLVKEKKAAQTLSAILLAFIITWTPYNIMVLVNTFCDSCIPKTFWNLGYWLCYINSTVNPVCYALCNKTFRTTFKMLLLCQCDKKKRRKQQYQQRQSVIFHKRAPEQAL
Method: Tests on Inhibition of Binding to Muscarinic Receptors
These tests were performed according to a modification of the method of Hargreaves et al. (Br. J. Pharmacol. 107: 494-501, 1992). Membranes from CHO cells expressing cloned human m1-m5 (Receptor Biology, Inc.) were incubated with 0.2 nM [^3 H]-N-methylscopolamine and each a compound of the present invention to be tested in 0.5 ml of 50 mM Tris-HCl-10 mM MgCl2 -1 mM EDTA (pH 7.4) for 2 hours at 25° C. Free and membrane-bound [^3 H]-N-methylscopolamine were separated by filtration over glass filters (UniFilter-GF/C; Packard Instruments Co., Inc.) using cell harvester (Filtermate™ 196; Packard Instruments Co., Inc.). Then the filter was washed four times with 1 ml of ice-cold Tris-HCl (pH 7.4) and dried at 50° C. After adding a scintillator (Microscinti 0; Packard Instruments Co., Inc.), the radioactivity was counted by a liquid scintillation counter (TopCount™; Packard Instruments Co., Inc.). Non-specific binding was measured in the presence of 1 μM N-methylscopolamine.

Question: What does the source list for `Cl.Cl.Nc1cccc(CN2CCC(NC(=O)[C@](O)(c3ccccc3)[C@@H]3CCC(F)(F)C3)CC2)n1` [Example 20, (2R)-N-[1-(6-aminopyridin-2-ylmethyl)piperidin-4-yl]-2-[(1R)-3,3-difluorocyclopentyl]-2-hydroxy-2-phenylacetamide dihydrochloride]?
Answer: Kb (M2 receptor): 2.1 µM; ED50 (Muscarinic M3 Receptor [1]): 0.37 mg/kg; pKi (Muscarinic M3 receptor [2]; CHO cell membranes expressing cloned human receptor, 0.2 nM [3H]-N-methylscopolamine, pH 7.4, 2 hours, 25° C, read-out: Ki M3 (inhibitory effects on binding to muscarinic M3 receptor)): 8.52; M2/M3 (ratio of binding Ki) (Muscarinic M3 receptor [2]; selectivity ratio of Ki values, binding): 180

Question: `O=C(NC1CCN(Cc2ccsc2)CC1)[C@](O)(c1ccccc1)[C@@H]1CCC(F)(F)C1` [Example 11, (2R)-N-[1-(3-thienylmethyl)piperidin-4-yl]-2-[(1R)-3,3-difluorocyclopentyl]-2-hydroxy-2-phenylacetamide] was tested. Which Kb (M2 receptor) did it give?
Answer: 0.61 µM

Question: And the ED50 (Muscarinic M3 Receptor [1])?
Answer: 0.22 mg/kg
